What was measured:
Assay type in all cases: in vivo
[1] = system: Ryegrass, Italian (Italian ryegrass, Lolium multiflorum); assay: Test A postemergence, Ryegrass, Italian; conditions: Postemergence, 0 to 100 scale (0 no effect, 100 complete control); for Ryegrass, Italian plant response rating: visual injury vs untreated controls after approx. 10 days
How it was run: (§1)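 Compounds in non-phytotoxic solvent with surfactant. Soil: loam/sand. Preemergence via directed soil spray after seeding; postemergence on seedlings 2–10 cm, one- to two-leaf.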

[2] = system: ragweed (common ragweed, Ambrosia artemisiifolia); assay: Test A postemergence, ragweed; conditions: Postemergence, 0 to 100 scale (0 no effect, 100 complete control); for Ragweed plant response rating: visual injury vs untreated controls after approx. 10 days
How it was run: as §1

[3] = system: barnyardgrass (Echinochloa crus-galli); assay: Test A postemergence, barnyardgrass; conditions: Postemergence, 0 to 100 scale (0 no effect, 100 complete control); for Barnyardgrass plant response rating: visual injury vs untreated controls after approx. 10 days
How it was run: (§2)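 Preemergence: seeded pots of loam plus sand received a directed soil spray. Postemergence: seedlings at one to two leaves, 2 to 10 cm high, were oversprayed. Each compound was formulated in a non-phytotoxic solvent mix that included a surfactant.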

[4] = system: pigweed (Amaranthus retroflexus); assay: Test A postemergence, pigweed; conditions: Postemergence, 0 to 100 scale (0 no effect, 100 complete control); for Pigweed plant response rating: visual injury vs untreated controls after approx. 10 days
How it was run: as §1

kochia (Bassia scoparia) [5] = assay: Test A preemergence, kochia; conditions: Preemergence; for Plant response rating, Kochia: 0 to 100 scale (0 no effect, 100 complete control); for Kochia plant response rating: 500 g ai/ha, visual injury on 0 to 100 scale (0 no effect, 100 complete control), approximately 10 days
How it was run: as §1

[6] = system: blackgrass (Alopecurus myosuroides); assay: Test A postemergence, blackgrass; conditions: Postemergence, 0 to 100 scale (0 no effect, 100 complete control); for Blackgrass plant response rating: visual injury vs untreated controls after approx. 10 days
How it was run: as §1

[7] = system: barnyardgrass (Echinochloa crus-galli); assay: Test A preemergence, barnyardgrass; conditions: Preemergence; for Plant response rating, Barnyardgrass: 0 to 100 scale (0 no effect, 100 complete control)
How it was run: as §1

[8] = system: Foxtail, Giant (giant foxtail, Setaria faberi); assay: Test A preemergence, Foxtail, Giant; conditions: Preemergence; for Plant response rating, Foxtail, Giant: 0 to 100 scale (0 no effect, 100 complete control); for Foxtail, Giant plant response rating: 500 g ai/ha, visual injury on 0 to 100 scale (0 no effect, 100 complete control), approximately 10 days
How it was run: as §1

[9] = system: galium (catchweed bedstraw, Galium aparine); assay: Test A postemergence, galium; conditions: Postemergence, 0 to 100 scale (0 no effect, 100 complete control); for Galium plant response rating: visual injury vs untreated controls after approx. 10 days
How it was run: as §2

[10] = system: wheat (Triticum aestivum); assay: Test A postemergence, wheat; conditions: Postemergence, 0 to 100 scale (0 no effect, 100 complete control); for Wheat plant response rating: visual injury vs untreated controls after approx. 10 days
How it was run: as §2

[11] = system: Foxtail, Giant (giant foxtail, Setaria faberi); assay: Test A postemergence, Foxtail, Giant; conditions: Postemergence, 0 to 100 scale (0 no effect, 100 complete control); for Foxtail, Giant plant response rating: visual injury vs untreated controls after approx. 10 days
How it was run: as §1

[12] = system: ragweed (common ragweed, Ambrosia artemisiifolia); assay: Test A preemergence, ragweed; conditions: Preemergence; for Plant response rating, Ragweed: 0 to 100 scale (0 no effect, 100 complete control); for Ragweed plant response rating: 500 g ai/ha, visual injury on 0 to 100 scale (0 no effect, 100 complete control), approximately 10 days
How it was run: as §1

[13] = system: pigweed (Amaranthus retroflexus); assay: Test A preemergence, pigweed; conditions: for Plant response rating, Pigweed: 0 to 100 scale (0 no effect, 100 complete control); for Pigweed plant response rating: 500 g ai/ha, visual injury on 0 to 100 scale (0 no effect, 100 complete control), approximately 10 days
How it was run: as §2

corn (Zea mays) = assay: Test A postemergence, corn; conditions: Postemergence, 0 to 100 scale (0 no effect, 100 complete control); for Corn plant response rating: visual injury vs untreated controls after approx. 10 days
How it was run: as §1

[14] = system: Ryegrass, Italian (Italian ryegrass, Lolium multiflorum); assay: Test A preemergence, Ryegrass, Italian; conditions: Preemergence; for Plant response rating, Ryegrass, Italian: 0 to 100 scale (0 no effect, 100 complete control); for Ryegrass, Italian plant response rating: 500 g ai/ha, visual injury on 0 to 100 scale (0 no effect, 100 complete control), approximately 10 days
How it was run: as §1

kochia (Bassia scoparia) [15] = assay: Test A postemergence, kochia; conditions: Postemergence, 0 to 100 scale (0 no effect, 100 complete control); for Kochia plant response rating: visual injury vs untreated controls after approx. 10 days
How it was run: as §1

[16] = 125 g ai/ha, visual injury, approx. 10 days
[17] = 500 g ai/ha, visual injury approx. 10 days
[18] = 1000 g ai/ha, visual injury, approx. 10 days

Row | Structure (SMILES) | Plant response rating, Ryegrass, Italian ([1]; 125 g ai/ha) | Plant response rating, Ragweed ([2]; 125 g ai/ha) | Plant response rating, Barnyardgrass ([3]; 125 g ai/ha) | Plant response rating, Pigweed ([4]; 125 g ai/ha) | Plant response rating, Kochia (kochia (Bassia scoparia) [5]; [16]) | Kochia plant response rating (kochia (Bassia scoparia) [5]) | Plant response rating, Blackgrass ([6]; 125 g ai/ha) | Plant response rating, Barnyardgrass [7, 16] | Plant response rating, Foxtail, Giant [8, 16] | Foxtail, Giant plant response rating [8] | Plant response rating, Galium ([9]; 125 g ai/ha) | Plant response rating, Wheat ([10]; 125 g ai/ha) | Plant response rating, Foxtail, Giant ([11]; 125 g ai/ha) | Plant response rating, Ragweed [12, 16] | Ragweed plant response rating [12] | Plant response rating, Pigweed [13, 16] | Pigweed plant response rating [13] | Plant response rating, Corn (corn (Zea mays); 125 g ai/ha) | Plant response rating, Ryegrass, Italian [14, 16] | Ryegrass, Italian plant response rating [14] | other results
1 | Cc1cc(F)c(C(=O)N2CCOCC2)cc1N(S(=O)(=O)C(F)(F)F)S(=O)(=O)C(F)(F)F [Compound 237] | 40 | 50 | 20 | 30 | 90 | 90 | 0 | 40 | 20 | 40 | 0 | 0 | 20 | 30 | 80 | 80 | 100 | 0 | 20 | 50 | Ryegrass, Italian plant response rating ([1]; 500 g ai/ha): 40; Ragweed plant response rating ([2]; 500 g ai/ha): 80; Barnyardgrass plant response rating ([3]; 500 g ai/ha): 40; Pigweed plant response rating ([4]; 500 g ai/ha): 60; Blackgrass plant response rating ([6]; 500 g ai/ha): 0; Plant response rating, Barnyardgrass ([7]; 500 g ai/ha): 30; Galium plant response rating ([9]; 500 g ai/ha): 50; Wheat plant response rating ([10]; 500 g ai/ha): 0; Foxtail, Giant plant response rating ([11]; 500 g ai/ha): 40; Corn plant response rating (corn (Zea mays); 500 g ai/ha): 20; Plant response rating, Kochia (kochia (Bassia scoparia) [15]; 125 g ai/ha): 70; Kochia plant response rating (kochia (Bassia scoparia) [15]; 500 g ai/ha): 90
2 | Cc1cc(F)c(C(=O)N2CC(C)OC(C)C2)cc1NS(=O)(=O)C(F)(F)F (stereo not drawn) [Compound 238] | 30 | 60 | 0 | 30 | 80 | 60 | 0 | 0 | 30 | 60 | 80 | 60 | 30 | 20 | 90 | 20 | 80 | 0 | 60 | 90 | Ryegrass, Italian plant response rating ([1]; 500 g ai/ha): 70; Ragweed plant response rating ([2]; 500 g ai/ha): 80; Barnyardgrass plant response rating ([3]; 500 g ai/ha): 60; Pigweed plant response rating ([4]; 500 g ai/ha): 80; Blackgrass plant response rating ([6]; 500 g ai/ha): 30; Plant response rating, Barnyardgrass ([7]; 500 g ai/ha): 0; Galium plant response rating ([9]; 500 g ai/ha): 80; Wheat plant response rating ([10]; 500 g ai/ha): 70; Foxtail, Giant plant response rating ([11]; 500 g ai/ha): 70; Corn plant response rating (corn (Zea mays); 500 g ai/ha): 0; Plant response rating, Kochia (kochia (Bassia scoparia) [15]; 125 g ai/ha): 20; Kochia plant response rating (kochia (Bassia scoparia) [15]; 500 g ai/ha): 30
3 | Cc1cc(F)c(C(=O)N2CCC(C#N)CC2)cc1N(S(=O)(=O)C(F)(F)F)S(=O)(=O)C(F)(F)F [Compound 239] | 0 | 0 | 0 | 20 | 30 | 80 | 0 | 0 | 20 | 60 | 0 | 0 | 0 | 20 | 70 | 60 | 90 | 0 | 0 | 30 | Ryegrass, Italian plant response rating ([1]; 500 g ai/ha): 0; Ragweed plant response rating ([2]; 500 g ai/ha): 0; Barnyardgrass plant response rating ([3]; 500 g ai/ha): 0; Pigweed plant response rating ([4]; 500 g ai/ha): 50; Blackgrass plant response rating ([6]; 500 g ai/ha): 0; Plant response rating, Barnyardgrass ([7]; 500 g ai/ha): 20; Galium plant response rating ([9]; 500 g ai/ha): 40; Wheat plant response rating ([10]; 500 g ai/ha): 0; Foxtail, Giant plant response rating ([11]; 500 g ai/ha): 30; Corn plant response rating (corn (Zea mays); 500 g ai/ha): 10; Plant response rating, Kochia (kochia (Bassia scoparia) [15]; 125 g ai/ha): 0; Kochia plant response rating (kochia (Bassia scoparia) [15]; 500 g ai/ha): 10
4 | Cc1cc(F)c(C(=O)N2CCOCC2)cc1NS(=O)(=O)C(F)(F)F [Compound 240] | 30 | 70 | 40 | 30 | 70 | 90 | 0 | 0 | 30 | 80 | 50 | 0 | 20 | 30 | 50 | 0 | 80 | 20 | 40 | 70 | Plant response rating, Ryegrass, Italian [1, 17]: 60; Plant response rating, Ragweed [2, 17]: 90; Plant response rating, Barnyardgrass [3, 17]: 70; Plant response rating, Pigweed [4, 17]: 50; Plant response rating, Blackgrass [6, 17]: 10; Barnyardgrass plant response rating ([7]; 500 g ai/ha, visual injury on 0 to 100 scale (0 no effect, 100 complete control), approximately 10 days): 50; Plant response rating, Galium [9, 17]: 70; Plant response rating, Wheat [10, 17]: 30; Plant response rating, Foxtail, Giant [11, 17]: 60; Plant response rating, Corn (corn (Zea mays); [17]): 10; Plant response rating, Kochia (kochia (Bassia scoparia) [15]; 125 g ai/ha): 50; Plant response rating, Kochia (kochia (Bassia scoparia) [15]; [17]): 80
5 | Cc1cc(C)c(C(=O)N2CCC(Cl)CC2)cc1NS(=O)(=O)C(F)(F)F [Compound 242] | – | – | – | – | – | – | – | – | – | – | – | – | – | – | – | – | – | – | – | – | Plant response rating, Ryegrass, Italian [1, 18]: 0; Plant response rating, Ragweed [2, 18]: 90; Plant response rating, Barnyardgrass [3, 18]: 90; Plant response rating, Pigweed [4, 18]: 90; Plant response rating, Kochia (kochia (Bassia scoparia) [5]; 1000 g ai/ha): 90; Plant response rating, Blackgrass [6, 18]: 40; Plant response rating, Barnyardgrass ([7]; 1000 g ai/ha): 100; Plant response rating, Foxtail, Giant ([8]; 1000 g ai/ha): 100; Plant response rating, Galium [9, 18]: 90; Plant response rating, Wheat [10, 18]: 60; Plant response rating, Foxtail, Giant [11, 18]: 90; Plant response rating, Ragweed ([12]; 1000 g ai/ha): 90; Plant response rating, Pigweed ([13]; 1000 g ai/ha): 100; Plant response rating, Corn (corn (Zea mays); [18]): 70; Plant response rating, Ryegrass, Italian ([14]; 1000 g ai/ha): 100; Plant response rating, Kochia (kochia (Bassia scoparia) [15]; [18]): 80

From US20230278972A1, “SUBSTITUTED HALOALKYL SULFONANILIDE HERBICIDES” (FMC Corporation, priority 2020, published 2023)
